{"source": "paper PMC8801796", "about": "(Reproductive Toxicology (Elmsford, N.y.), 2022)", "origin": "cited, not measured here", "key": {"[1]": {"tested_on": "monkeys, mice, rats, and rabbits", "conditions": "cited from earlier work"}, "[2]": {"tested_on": "rats, rabbits, and guinea pigs", "conditions": "cited from earlier work"}, "[3]": {"tested_on": "bacterial reverse mutation", "conditions": "in vitro; cited from earlier work"}, "[4]": {"tested_on": "hypoxanthine phosphoribosyltransferase (HPRT) gene", "conditions": "mammalian cell; cited from earlier work"}, "rats [5]": {"tested_on": "rats", "conditions": "cited from earlier work"}, "rabbits": {"tested_on": "rabbits", "conditions": "cited from earlier work"}, "[6]": {"tested_on": "Big Blue® (cII Locus) transgenic rodent", "conditions": "cited from earlier work"}, "rats [7]": {"tested_on": "rats", "conditions": "rat PPND, maternal dosing GD 6 to postpartum day 20; cited from earlier work"}}, "note": "Where two headings read alike, the source gives them in different places.", "data": [{"smiles": "NC(=O)c1nc(F)c[nH]c1=O", "note": "[FAV, favipiravir]", "values": [{"measurement": "Teratogenicity", "setting": "[1]", "value": "teratogenesis has been reported"}]}, {"smiles": "NC(=O)c1ncn([C@@H]2O[C@H](CO)[C@@H](O)[C@H]2O)n1", "note": "[RBV, ribavirin]", "values": [{"measurement": "Teratogenicity", "setting": "[2]", "value": "embryocidal and/or teratogenic"}]}, {"smiles": "CC(C)C(=O)OC[C@H]1O[C@@H](n2ccc(NO)nc2=O)[C@H](O)[C@@H]1O", "note": "[molnupiravir]", "values": [{"measurement": "Ames assay result", "setting": "[3]", "value": "positive"}, {"measurement": "HPRT gene mutation assay result", "setting": "[4]", "value": "positive"}, {"measurement": "Developmental toxicity", "setting": "rats [5]; rats, 250 mg/kg/day", "value": "no developmental toxicity"}, {"measurement": "Developmental toxicity", "setting": "rats [5]; rats, 500 mg/kg/day, in the presence of decreased maternal body weight gain", "value": "lower fetal body weights and delayed ossification"}, {"measurement": "Developmental toxicity", "setting": "rats [5]; rats, 1000 mg/kg/day (highest dose)", "value": "severe manifestations of developmental toxicity (malformations and embryo-fetal lethality)"}, {"measurement": "Developmental toxicity", "setting": "rabbits; rabbits, 400 mg/kg/day", "value": "no developmental toxicity"}, {"measurement": "Developmental toxicity", "setting": "rabbits; rabbits, 750 mg/kg/day, in the presence of slight maternal toxicity", "value": "lower fetal body weights"}, {"measurement": "Big Blue transgenic rodent mutagenesis assay result", "setting": "[6]", "value": "negative"}]}, {"smiles": "CCC(CC)COC(=O)[C@H](C)N[P@](=O)(OC[C@H]1O[C@@](C#N)(c2ccc3c(N)ncnn23)[C@H](O)[C@@H]1O)Oc1ccccc1", "note": "[remdesivir]", "values": [{"measurement": "Effects on embryo-fetal development", "setting": "rats [5]; rats, up the highest dose tested, 20 mg/kg/day", "value": "no adverse effects on embryo-fetal development"}, {"measurement": "Effects on embryo-fetal development", "setting": "rabbits; rabbits, up the highest dose tested, 20 mg/kg/day", "value": "no adverse effects on embryo-fetal development"}]}, {"smiles": "CC(C)c1nc(CN(C)C(=O)N[C@H](C(=O)N[C@@H](Cc2ccccc2)C[C@H](O)[C@H](Cc2ccccc2)NC(=O)OCc2cncs2)C(C)C)cs1", "note": "[ritonavir]", "values": [{"measurement": "Cryptorchidism in postnatal developing rats", "setting": "rats [7]", "value": "no reports of cryptorchidism"}, {"measurement": "Cryptorchidism in rat EFD study", "setting": "rats [5]; mid (35 mg/kg/day) and high (75 mg/kg/day) doses", "value": "cryptorchidism was reported"}, {"measurement": "Fetal malformations", "setting": "rats [5]; rat EFD, doses of 15, 35, and 75 mg/kg", "value": "no evidence of fetal malformations"}, {"measurement": "Developmental toxicity findings in EFD studies", "setting": "rats [5]; rats and/or rabbits, only at the highest dose evaluated in each species, maternally toxic doses", "value": "higher resorptions, lower fetal body weight, ossification delays, and increased skeletal variations"}, {"measurement": "Fetal malformations", "setting": "rabbits; rabbit EFD, doses of 25, 50, and 110 mg/kg/day", "value": "no evidence of fetal malformations"}]}]}
